Experimental data as given in patent US9345793B2, “Compounds for binding to the platelet specific glycoprotein IIB/IIIA and their use for imaging of thrombi” (PIRAMAL IMAGING SA, priority 2011, dated 2016).
Where two headings read alike, the source gives them in different places.

Target: human GPIIb/IIIa receptor (Homo sapiens (Human), UniProt P05106+P08514)
Test: Affinity assay: displacement of tritiated reference compound from immobilized purified GPIIb/IIIa
Type: binding
Protocol: Affinity assay: In the first step human GPIIb/IIIa purified from human platelets was immobilized on a 96-well solid plate. After 48 hours the plates were washed and the unspecific binding sites were blocked with Roti®-Block. 2. In the next step, the plates were simultaneously incubated with a tritium labeled known GPIIb/IIIa binder (^3H) mixed with increasing concentrations of the novel small molecule compounds (inhibitor, ^19F). The higher the affinity of the inhibitor, the lower the bound fraction of the tritiated known GPIIb/IIIa binder (^3H) was. The fraction of tritiated compound (^3H), which is not displaced by inhibitor, was measured in a microplate scintillation counter.
Purified human glycoprotein IIb/IIIa (20 mM Tris-HCl, 0.1 M NaCl, 0.1% Triton X-100, 1 mM CaCl2, 0.05% NaN3, 50% Glycerol, pH 7.4) was purchased from Enzyme Research Laboratories Inc. (South Bend, Ind.). The GPIIb/IIIa receptor was diluted in phosphate-buffered saline (Dulbecco's Phosphate Buffered Saline (D-PBS(+)) with calcium and magnesium, GIBCO®, Invitrogen) with 0.01% bovine serum albumin (albumin from bovine serum—lyophilized powder, ≧96%, Sigma).
The GPIIb/IIIa receptor was immobilized 48 hours at least (100 μL per well, 48 to maximum 96 hours) on a 96-well solid plate (Immuno Plate MaxiSorp™, Nunc, Roskilde, Denmark) at 277 K to 280 K and at a concentration of 0.1 μg per well to 1 μg per well. As negative control one row of the plate (n=8) was incubated just with 2% bovine serum albumin (200 μper well, albumin from bovine serum—lyophilized powder, […], Sigma, diluted in D-PBS(+)). After washing three times with the wash buffer (230 μL per well, Dulbecco's Phosphate Buffered Saline (D-PBS (−)) contains no calcium or magnesium, GIBCO®, Invitrogen) residual exposed plastic and unspecific binding sites were blocked by incubating the plate with a special blocking solution (200 μL per well, Roti®-Block, Carl Roth GmbH Co KG, Karlsruhe) containing 2% bovine serum albumin (Albumin from bovine serum—lyophilized powder, ≧96%, Sigma) 1 hour at room temperature.
After washing three times with the wash buffer 50 μL of tritiated reference compound (60 nM, ^3H-labeled compound) and 50 μL of novel compound (inhibitor, ^19F) were simultaneously added to each well and incubated for 1 hour at room temperature. Several concentrations of each novel inhibitor (0.1, 1, 2, 5, 10, 20 50, 100, 200, 500, 1000, 2000, 5000, 10000 and 20000 nM) were investigated. At each concentration of inhibitor a fourfold determination was performed.
The maximum value of tritiated reference compound was determined without addition of inhibitor (n=8). To exclude unspecific binding of ^3H-reference compound wells without glycoprotein receptors were used as negative controls (n=12, identically treated just without GP IIb/IIIa receptors).
After one hour the plate was washed three times with phosphate-buffered saline (200 μL per well, Dulbecco's Phosphate Buffered Saline (D-PBS(+)), GIBCO®, Invitrogen). Following 140 μL of liquid scintillation cocktail (MicroScint™ 40 aqueous, Perkin Elmer) was added to each well. After 15 min at room temperature the plates were measured at the microplate scintillation counter (TopCount NXT v2.13, Perkin Elmer, Packard Instrument Company).
In the first step human glycoprotein IIb/IIIa, which is purified from human platelets, was immobilized on a 96-well solid plate. After 48 hours at least the plates were washed and the unspecific binding sites were blocked with Roti®-Block. In the next step, the plates were simultaneously incubated with a tritium labeled reference compound and the novel small molecule compound (inhibitor). The higher the affinity of the inhibitor, the smaller is the bound fraction of reference compound. The fraction of tritiated reference compound, which is not displaced by inhibitor, was measured at a microplate scintillation counter.

[1] = 19F compounds vs 60 nM 3H-labeled reference compound, 1 hour at room temperature, read-out: IC50 human
[2] = values repeated beside the 18F-compound, read-out: IC50 human (corresponding 19F-compound, Table 2)

human GPIIb/IIIa receptor, sequence (P08514 32-887): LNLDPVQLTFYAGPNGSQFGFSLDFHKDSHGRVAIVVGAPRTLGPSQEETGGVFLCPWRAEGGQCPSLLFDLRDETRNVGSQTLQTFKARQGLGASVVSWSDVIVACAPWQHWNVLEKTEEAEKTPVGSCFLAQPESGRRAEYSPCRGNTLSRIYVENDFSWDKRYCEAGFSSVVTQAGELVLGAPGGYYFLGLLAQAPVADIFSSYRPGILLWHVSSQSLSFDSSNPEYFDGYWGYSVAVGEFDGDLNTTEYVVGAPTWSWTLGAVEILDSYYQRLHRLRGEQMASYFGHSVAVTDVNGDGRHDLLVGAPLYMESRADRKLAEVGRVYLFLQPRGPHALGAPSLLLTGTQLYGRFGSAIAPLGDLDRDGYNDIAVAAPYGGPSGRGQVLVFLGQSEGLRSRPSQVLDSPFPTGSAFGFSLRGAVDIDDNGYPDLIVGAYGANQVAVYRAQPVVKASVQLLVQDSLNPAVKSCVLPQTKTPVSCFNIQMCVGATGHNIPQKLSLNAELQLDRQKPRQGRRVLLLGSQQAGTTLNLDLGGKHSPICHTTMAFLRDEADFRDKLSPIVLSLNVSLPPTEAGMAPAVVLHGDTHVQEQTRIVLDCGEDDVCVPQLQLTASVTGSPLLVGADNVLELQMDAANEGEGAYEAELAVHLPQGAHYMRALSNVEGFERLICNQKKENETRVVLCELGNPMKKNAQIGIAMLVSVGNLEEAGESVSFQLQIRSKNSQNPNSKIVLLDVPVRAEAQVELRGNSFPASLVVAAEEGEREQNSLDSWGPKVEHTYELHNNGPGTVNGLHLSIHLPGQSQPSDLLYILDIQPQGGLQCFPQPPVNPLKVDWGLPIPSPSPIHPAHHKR
human GPIIb/IIIa receptor, sequence (P08514 891-1039 partner): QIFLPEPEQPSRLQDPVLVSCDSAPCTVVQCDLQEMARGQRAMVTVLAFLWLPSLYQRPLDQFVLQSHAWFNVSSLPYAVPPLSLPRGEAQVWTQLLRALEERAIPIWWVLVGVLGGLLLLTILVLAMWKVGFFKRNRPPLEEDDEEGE
human GPIIb/IIIa receptor, sequence (P05106 27-788): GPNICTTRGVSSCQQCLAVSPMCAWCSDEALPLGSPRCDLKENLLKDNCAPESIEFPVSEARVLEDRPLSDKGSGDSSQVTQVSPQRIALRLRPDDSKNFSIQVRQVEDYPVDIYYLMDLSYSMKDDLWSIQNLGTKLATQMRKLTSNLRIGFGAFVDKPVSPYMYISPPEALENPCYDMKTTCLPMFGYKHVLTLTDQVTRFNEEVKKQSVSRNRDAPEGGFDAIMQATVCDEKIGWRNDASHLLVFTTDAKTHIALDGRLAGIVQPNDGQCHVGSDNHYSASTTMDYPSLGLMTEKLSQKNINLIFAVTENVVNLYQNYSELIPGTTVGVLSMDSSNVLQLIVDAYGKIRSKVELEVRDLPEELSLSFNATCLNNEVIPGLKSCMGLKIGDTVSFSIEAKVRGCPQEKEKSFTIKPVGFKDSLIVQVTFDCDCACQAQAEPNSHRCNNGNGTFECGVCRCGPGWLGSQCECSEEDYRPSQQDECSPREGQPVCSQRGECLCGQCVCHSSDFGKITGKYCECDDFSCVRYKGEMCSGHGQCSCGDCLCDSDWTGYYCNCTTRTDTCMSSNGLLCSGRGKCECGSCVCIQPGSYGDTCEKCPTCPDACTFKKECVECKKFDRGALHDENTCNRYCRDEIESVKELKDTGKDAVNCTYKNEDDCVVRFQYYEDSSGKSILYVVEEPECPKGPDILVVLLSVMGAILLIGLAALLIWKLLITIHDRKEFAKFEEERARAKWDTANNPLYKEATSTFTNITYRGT

SMILES	IC50 [1] [nM]	IC50 [2] [nM]
N#Cc1cc(COc2cncc([C@@H](CC(=O)O)NC(=O)[C@H]3CCCN(C(=O)CCC4CCNCC4)C3)c2)ccc1F (stereo in doubt) [Example 12, (3R)-3-{5-[(3-Cyano-4-fluorobenzyl)oxy]pyridin-3-yl}-3-[({(3S)-1-[3-(piperidin-4-yl)propanoyl]piperidin-3-yl}carbonyl)amino]propanoic acid]	8	
O=C(O)C[C@H](NC(=O)[C@@H]1CCCN(C(=O)CCC2CCNCC2)C1)c1cncc(CCc2ccc(OCCF)cc2)c1 [Example 18, (3S)-3-(5-{2-[4-(2-Fluoroethoxy)phenyl]ethyl}pyridin-3-yl)-3-[({(3R)-1-[3-(piperidin-4-yl)propanoyl]piperidin-3-yl}carbonyl)amino]propanoic acid]	3	3
O=C(O)C[C@H](NC(=O)[C@@H]1CCCN(C(=O)CCC2CCNCC2)C1)c1cncc(C=Cc2cccc(OCCF)c2)c1 (mixture of isomers) [Example 20, (E/Z)(3S)-3-(5-{2-[3-(2-Fluoroethoxy)phenyl]ethenyl}pyridin-3-yl)-3-[({(3R)-1-[3-(piperidin-4-yl)propanoyl]piperidin-3-yl}carbonyl)amino]propanoic acid]	7	
O=C(O)C[C@H](NC(=O)[C@@H]1CCCN(C(=O)CCC2CCNCC2)C1)c1cncc(C#Cc2cccc(OCCF)c2)c1 [Example 16, (3S)-3-(5-{[3-(2-Fluoroethoxy)phenyl]ethynyl}pyridin-3-yl)-3-[({(3R)-1-[3-(piperidin-4-yl)propanoyl]piperidin-3-yl}carbonyl)amino]propanoic acid]	6	
O=C(O)C[C@H](NC(=O)[C@@H]1CCCN(C(=O)CCC2CCNCC2)C1)c1cncc(-c2ccc(F)c([N+](=O)[O-])c2)c1 [Example 11, (3S)-3-[5-(4-Fluoro-3-nitrophenyl)pyridin-3-yl]-3-[({(3R)-1-[3-(piperidin-4-yl)propanoyl]piperidin-3-yl}carbonyl)amino]propanoic acid]	14	
N#Cc1ccc([C@H](CC(=O)O)NC(=O)[C@@H]2CCCN(C(=O)CCC3CCNCC3)C2)cc1F [Example 14, (3S)-3-(4-Cyano-3-fluorophenyl)-3-[({(3R)-1-[3-(piperidin-4-yl)propanoyl]piperidin-3-yl}carbonyl)amino]propanoic acid]	15	
O=C(O)C[C@H](NC(=O)[C@@H]1CCCN(C(=O)CCC2CCNCC2)C1)c1cncc(-c2ccccc2OCCF)c1 [Example 8, (3S)-3-{5-[2-(2-Fluoroethoxy)phenyl]pyridin-3-yl}-3-[({(3R)-1-[3-(piperidin-4-yl)propanoyl]piperidin-3-yl}carbonyl)amino]propanoic acid]	14	
O=C(O)C[C@H](NC(=O)[C@@H]1CCCN(C(=O)CCC2CCNCC2)C1)c1cncc(C#Cc2ccc(OCCF)cc2)c1 [Example 15, (3S)-3-(5-{[4-(2-Fluoroethoxy)phenyl]ethynyl}pyridin-3-yl)-3-[({(3R)-1-[3-(piperidin-4-yl)propanoyl]piperidin-3-yl}carbonyl)amino]propanoic acid]	5	
O=C(O)C[C@H](NC(=O)[C@@H]1CCCN(C(=O)CCC2CCNCC2)C1)c1cc(F)cc(-c2ccc(OCCF)cc2)c1 [Example 17, (3S)-3-[5-Fluoro-4′-(2-fluoroethoxy)biphenyl-3-yl]-3-[({(3R)-1-[3-(piperidin-4-yl)propanoyl]piperidin-3-yl}carbonyl)amino]propanoic acid]	35	
O=C(O)C[C@H](NC(=O)[C@@H]1CCCN(C(=O)CCC2CCNCC2)C1)c1cncc(CCc2cccc(OCCF)c2)c1 [Example 19, (3S)-3-(5-{2-[3-(2-Fluoroethoxy)phenyl]ethyl}pyridin-3-yl)-3-[({(3R)-1-[3-(piperidin-4-yl)propanoyl]piperidin-3-yl}carbonyl)amino]propanoic acid]	3	3
O=C(O)C[C@H](NC(=O)[C@@H]1CCCN(C(=O)CCC2CCNCC2)C1)c1cncc(-c2cccc(OCCF)c2)c1 [Example 6, (3S)-3-{5-[3-(2-Fluoroethoxy)phenyl]pyridin-3-yl}-3-[({(3R)-1-[3-(piperidin-4-yl)propanoyl]piperidin-3-yl}carbonyl)amino]propanoic acid]	16	
O=C(O)C[C@H](NC(=O)[C@@H]1CCCN(C(=O)CCC2CCNCC2)C1)c1ccc(OCCF)cc1 [Example 2, (3S)-3-[4-(2-Fluoroethoxy)phenyl]-3-[({(3R)-1-[3-(piperidin-4-yl)propanoyl]piperidin-3-yl}carbonyl)amino]propanoic acid]	29	29
O=C(O)C[C@H](NC(=O)[C@@H]1CCCN(C(=O)CCC2CCNCC2)C1)c1cncc(OCCOCCOCCF)c1 [Example 5, (3S)-3-(5-{2-[2-(2-Fluoroethoxy)ethoxy]ethoxy}pyridine-3-yl)-3-[({(3R)-1-[3-(piperidin-4-yl)propanoyl]piperidin-3-yl}carbonyl)amino]propanoic acid]	16	
N#Cc1ccc(COc2cncc([C@H](CC(=O)O)NC(=O)[C@@H]3CCCN(C(=O)CCC4CCNCC4)C3)c2)cc1F [Example 13, (3S)-3-{5-[(4-Cyano-3-fluorobenzyl)oxy]pyridin-3-yl}-3-[({(3R)-1-[3-(piperidin-4-yl)propanoyl]piperidin-3-yl}carbonyl)amino]propanoic acid]	7	
N#Cc1ccc(-c2cncc([C@H](CC(=O)O)NC(=O)[C@@H]3CCCN(C(=O)CCC4CCNCC4)C3)c2)cc1F [Example 10, (3S)-3-[5-(4-Cyano-3-fluorophenyl)pyridin-3-yl]-3-[({(3R)-1-[3-(piperidin-4-yl)propanoyl]piperidin-3-yl}carbonyl)amino]propanoic acid]	15	
O=C(O)C[C@H](NC(=O)[C@@H]1CCCN(C(=O)CCC2CCNCC2)C1)c1cccc(OCCOCCOCCF)c1 [Example 4, (3S)-3-(3-{2-[2-(2-Fluoroethoxy)ethoxy]ethoxy}phenyl)-3-[({(3R)-1-[3-(piperidin-4-yl)propanoyl]piperidin-3-yl}carbonyl)amino]propanoic acid]	84	
N#Cc1cc(-c2cncc([C@H](CC(=O)O)NC(=O)[C@@H]3CCCN(C(=O)CCC4CCNCC4)C3)c2)ccc1F [Example 9, (3S)-3-[5-(3-Cyano-4-fluorophenyl)pyridin-3-yl]-3-[({(3R)-1-[3-(piperidin-4-yl)propanoyl]piperidin-3-yl}carbonyl)amino]propanoic acid]	21	21
